# Data published in patent publication US8530404B2, “Compounds and methods for treatment of cancer” (FibroGen, Inc., priority 2005, dated 2013).
# What was measured:
# HCT116-GFP colon tumors = experiment: Orthotopically implanted human HCT116-GFP colon tumor mouse xenograft (Example 4); format: in vivo
# Protocol: Procedures were carried out as described above for Example 3, except that the tumors of GFP-transfected H-460 cells were replaced with HCT116-GFP colon tumors, and surgical orthotopic implantation was directly into colon tissue.
# The HCT116 tumor model used here is a well-characterized representative colon xenograft model. The isolation of the human HCT116 tumor cell line from a human colon carcinoma has been described. (Brattain et al (1981) Cancer Res 41:1751-1756.) To aid in the detection of tumors and metastases, HCT116 cells were transduced with genes directing the expression of fluorescent proteins (e.g., HCT116-GFP). The use of fluorescent HCT116-derived tumors in similar studies has been described previously. (Ross et al (2000) Nat Genet 24:227-235.)
# HCT116-GFP tumor fragments harvested from the stock animals were transplanted into animals by surgical orthotopic implantation (SOI) as follows. The animals were anesthetized with isoflurane and the surgical area was sterilized using iodine and alcohol. After proper exposure of the colon following a lower midline abdominal incision, the serosa of the colon was removed and two pieces of 1 mm^3 tumor fragments per mouse were implanted. An 8-0 surgical suture was used to penetrate these small tumor pieces and suture them on the wall of the intestine. The intestine was then returned to the abdominal cavity. The incision in the abdominal wall was closed with a 6-0 surgical suture in one layer. The animals were kept under isoflurane anesthesia during surgery. All procedures of the operation described above were performed under a 7× magnification microscope (Olympus). Animals were kept in a barrier facility under HEPA filtration.
# Administration of Compound A or 5-FU (5-Flurouracil) to the animals was initiated three days following tumor transplantation. 5-FU, a chemotherapeutic agent used as a positive control, was administered by intraperitoneal injection (60 mg/kg) at four day intervals for a total of three doses. Compound A was administered at either 20 mg/kg or 60 mg/kg three times per week. Tumor volumes were measured at day 15, day 22, and day 29.
# H460 tumor cells = experiment: Subcutaneous H460 lung tumor xenograft, tumor growth delay study in combination with chemotherapeutics (Example 6); format: in vivo, mouse; conditions: Cmpd A 60 mg/kg p.o., paclitaxel 15 mg/kg i.v., carboplatin 120 mg/kg i.p.
# Protocol: This study was used to determine the effect of combined treatments where compounds and methods of the invention were combined with conventional anti-tumor therapies. These experiments were performed essentially as described above in Example 3, except that 1×10^7 H460 tumor cells were implanted subcutaneously to the flanks of female Harlan nude animals. The number of animals in each group was 10. Treatments were initiated when tumors reached an average size of approximately 100 mm^3.
# The study design was representative of tumor progression studies of the TGD (Tumor Growth Delay) type, using a protocol that required individual animals to be humanely euthanized after reaching a set endpoint of tumor volume greater than or equal to 2 cc.
# These two chemotherapeutic agents are of two broad classes of conventional anti-tumor therapeutics: microtubule poisons (paclitaxcel); and DNA-directed agents, including the sub-classification of DNA alkylating agents (carboplatin). In tumor-bearing human patients, conventional anti-tumor therapy commonly use of one or both classes of chemotherapeutic agents.
# The study was initiated with administration of conventional anti-tumor treatment or vehicle control, and followed one day after with administration of Compound A or vehicle control. […] (See Table 11 and Table 12 for compound and chemotherapeutic agent dosing schedule.)
# Tumor progression was determined for each treatment group and is presented as median Time-to-Endpoint (TTE).
# [1] = system: MDA-MB-435-GFP breast tumors; experiment: Orthotopically implanted human MDA-MB-435-GFP breast tumor mouse xenograft (Example 5); format: in vivo; conditions: 33 days of treatment; FIG. 1; dose not stated
# Protocol: The experiment was conducted essentially as described above in Example 3, except that the tumors of GFP-transfected H-460 cells were replaced with MDA-MB-435-GFP breast tumors, with surgical orthotopic implantation directly into breast tissue of female CD-1 nude animals. The number of animals in each group was increased to 15. […] (See, e.g., Ross et al (2000) Nat Genet 24:227-235 and Ellison et al. Mol Pathol. (2002) 55:294-299.)
# In the present MDA-MB-435-GFP breast cancer orthotopic study, administration of compound A was initiated 21 days after tumor fragment implantation to the mammary fat pad of female nude mice, at time at which the volume of primary tumors reached ˜150 mm^3. Taxotere, a positive chemotherapeutic agent control, was administered i.v. once weekly (15 mg/kg). After mean tumor volume in the vehicle control group exceeded 1 cm^3, animals were sacrificed (33 days of treatment) and primary tumors were excised from all animals and weighed.
# BNIP3L gene expression = BNIP3L gene expression in Kelly neuroblastoma cells (Affymetrix microarray); format: cell-based; conditions: 20 μM, 6 hours, vs 0.5% DMSO control
# Protocol: (§1) To identify compounds useful in the methods of the present invention, the following studies were performed. The effect of compounds of the present invention on expression of various genes associated with anti-tumor activity (e.g., genes having anti-proliferative activity, genes having pro-apoptotic activity, genes having anti-tumor activity, etc.). In these experiments, the effect of compounds on BNIP3, BNIP3L, NDRG1, CDKN1C, and REDD1/RTP801 gene expression in various types of cultured tumor cells line was examined, including Hep3B cells (human hepatocellular carcinoma), Kelly neuroblastoma cells, and MCF7 cells (human breast cancer)
# (§2) The effects of various compounds of the present invention on the expression of genes associated with tumor growth and progression were examined in Kelly neuroblastoma cells as follows. Kelly neuroblastoma cells were grown in RPMI media. […]
# (§3) RNA was isolated from the Kelly neuroblastoma cells using a commercial kit and used for the preparation of cDNA. BNIP3, CDKN1C, and 18S RNA levels were measured using commercial kits (18S, Applied Biosystems cat#4319413E); BNIP3, Applied Biosystems cat#HS00969293 MH). […] Kelly cell NDRG1 and BNIP3L mRNA levels were measured by Affymetrix microarray in a separate study. […]
# NDRG1 gene expression = NDRG1 gene expression in Kelly neuroblastoma cells (Affymetrix microarray); format: cell-based; conditions: 20 μM, 6 hours, vs 0.5% DMSO control
# Protocol: as §1, §2, §3
Structure (SMILES),"mean tumor volume (calipers, mean +/- SD) (HCT116-GFP colon tumors; Treatment Day 15, 20 mg/kg three times per week)","mean tumor volume (calipers, mean +/- SD) (HCT116-GFP colon tumors; Treatment Day 15, 60 mg/kg three times per week)","mean tumor volume (calipers, mean +/- SD) (HCT116-GFP colon tumors; Treatment Day 22, 20 mg/kg three times per week)","mean tumor volume (calipers, mean +/- SD) (HCT116-GFP colon tumors; Treatment Day 22, 60 mg/kg three times per week)","mean tumor volume (calipers, mean +/- SD) (HCT116-GFP colon tumors; Treatment Day 29, 20 mg/kg three times per week)","mean tumor volume (calipers, mean +/- SD) (HCT116-GFP colon tumors; Treatment Day 29, 60 mg/kg three times per week)","% TGD, Percent Tumor Growth Delay (vs. Group control) (H460 tumor cells) [%]","T-C (Test-control, difference of medians) (H460 tumor cells) [days]","% TGD, Percent Tumor Growth Delay (vs. Group control) (H460 tumor cells; listed as Cmpd. A) [%]","Median TTE (Time-to-Endpoint, tumor volume >= 2 cc) (H460 tumor cells; vehicle group 16.2) [days]",reduction of mean tumor volumes compared to vehicle control [1],fold-increase in BNIP3L mRNA expression (BNIP3L gene expression) [fold],fold-increase in NDRG1 mRNA expression (NDRG1 gene expression) [fold]
"O=C(O)CNC(=O)c1nc(Cl)c2ccccc2c1O [Compound A, [(1-Chloro-4-hydroxy-isoquinoline-3-carbonyl)-amino]-acetic acid]",39 +/− 27,24 +/− 23,67 +/− 49,45 +/− 38,197 +/− 158,152 +/− 125,9,1.5,9,17.7,approximately 20%,,
"COc1ccc(Oc2ccc3c(O)c(C(=O)NCC(=O)O)ncc3c2)cc1 [Compound C, {[4-Hydroxy-7-(4-methoxy-phenoxy)-isoquinoline-3-carbonyl]-amino}-acetic acid]",,,,,,,,,,,,5.9,7.3
